Literature values as cited in patent US20110061649A1, “DEVICE AND METHOD FOR TREATING RESPIRATORY AND OTHER DISEASES” (priority 2007, published 2011).
“Also recorded” adds a separate entry of the source. Like-named read-outs stand apart in the source and are kept apart here.

Key:
[1] = for storage without losing effectiveness / beneficial properties: Weizmann Institute article
[2] = system: methicillin-resistant staphylococcus aureus; conditions: allicin formulated into creams and soap
[3] = system: vancomycin-resistant enterococci; conditions: allicin formulated into creams and soap

life span ([1]; temperature not stated)	preserved stable ([1]; temperature of 4° Celsius)	level of allicin to which mammals cells proved to be immune (mammals cells)	Structure (SMILES)	life span ([1]; room temperature)	storage without losing effectiveness / beneficial properties ([1]; listed as natural compound)	blocking of cysteine proteinases (cysteine proteinases)	blocking of cysteine proteinases (cysteine proteinases; listed as Allicin)	blocking of alcohol dehydrogenases (alcohol dehydrogenases)	killing of methicillin-resistant staphylococcus aureus [2]	killing of vancomycin-resistant enterococci [3]	storage without losing effectiveness / beneficial properties [1]
few hours	stable for months	50 Mm	C=CCS[S+]([O-])CC=C (centres unmarked) [allicin]	less than an our; also recorded: about an hour	loses its beneficial properties within hours	blocking	Strongly Inhibits	blocking	killing	killing	–
–	–	–	C=CCS[S+]([O-])CC=C (centres unmarked) [pure semi-synthetic allicin, allicin]	–	–	–	–	–	–	–	stored for months without losing its effectiveness
